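Five compound concentrations were applied to cells in 96-well plates for 48 hours; endpoints were derived by simple linear interpolation of the resulting dose-response curve. The concentration for 50% growth inhibition is given as GI50. TGI: total growth inhibition.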
What was measured:
Test in all cases: NCI anticancer screen, dose series, 48 h
786-0 renal = tested on: 786-0 renal
A498 renal = tested on: A498 renal
A549 NSCLC = tested on: A549 NSCLC
ACHN renal = tested on: ACHN renal
BT-549 breast = tested on: BT-549 breast
CAKI-1 renal = tested on: CAKI-1 renal
CCRF-CEM leukemia = tested on: CCRF-CEM leukemia
COLO 205 colon = tested on: COLO 205 colon
DLD-1 colon = tested on: DLD-1 colon
DMS 114 small cell lung = tested on: DMS 114 small cell lung
DMS 273 small cell lung = tested on: DMS 273 small cell lung
DU-145 prostate = tested on: DU-145 prostate
EKVX NSCLC = tested on: EKVX NSCLC
HCC-2998 colon = tested on: HCC-2998 colon
HCT-116 colon = tested on: HCT-116 colon
HCT-15 colon = tested on: HCT-15 colon
HL-60(TB) leukemia = tested on: HL-60(TB) leukemia
HOP-62 NSCLC = tested on: HOP-62 NSCLC
HOP-92 NSCLC = tested on: HOP-92 NSCLC
HS 578T breast = tested on: HS 578T breast
HT29 colon = tested on: HT29 colon
IGROV1 ovarian = tested on: IGROV1 ovarian
K-562 leukemia = tested on: K-562 leukemia
KM12 colon = tested on: KM12 colon
KM20L2 colon = tested on: KM20L2 colon
LOX IMVI melanoma = tested on: LOX IMVI melanoma
LXFL 529 NSCLC = tested on: LXFL 529 NSCLC
M14 melanoma = tested on: M14 melanoma
M19-MEL melanoma = tested on: M19-MEL melanoma
MALME-3M melanoma = tested on: MALME-3M melanoma
MCF7 breast = tested on: MCF7 breast
MDA-MB-231 breast = tested on: MDA-MB-231 breast
MDA-MB-435 = tested on: MDA-MB-435
MOLT-4 leukemia = tested on: MOLT-4 leukemia
NCI-H226 lung = tested on: NCI-H226 lung
NCI-H23 lung = tested on: NCI-H23 lung
NCI-H460 lung = tested on: NCI-H460 lung
NCI-H522 lung = tested on: NCI-H522 lung
NCI/ADR-RES ovarian = tested on: NCI/ADR-RES ovarian
OVCAR-3 ovarian = tested on: OVCAR-3 ovarian
OVCAR-4 ovarian = tested on: OVCAR-4 ovarian
OVCAR-5 ovarian = tested on: OVCAR-5 ovarian
OVCAR-8 ovarian = tested on: OVCAR-8 ovarian
PC-3 prostate = tested on: PC-3 prostate
RPMI-8226 leukemia = tested on: RPMI-8226 leukemia
RXF 393 renal = tested on: RXF 393 renal
SF-268 CNS = tested on: SF-268 CNS
SF-295 CNS = tested on: SF-295 CNS
SF-539 CNS = tested on: SF-539 CNS
SK-MEL-2 melanoma = tested on: SK-MEL-2 melanoma
SK-MEL-28 melanoma = tested on: SK-MEL-28 melanoma
SK-MEL-5 melanoma = tested on: SK-MEL-5 melanoma
SK-OV-3 ovarian = tested on: SK-OV-3 ovarian
SN12C renal = tested on: SN12C renal
SNB-19 CNS = tested on: SNB-19 CNS
SNB-75 CNS = tested on: SNB-75 CNS
SR leukemia = tested on: SR leukemia
SW-620 colon = tested on: SW-620 colon
T-47D breast = tested on: T-47D breast
TK-10 renal = tested on: TK-10 renal
U251 CNS = tested on: U251 CNS
UACC-257 melanoma = tested on: UACC-257 melanoma
UACC-62 melanoma = tested on: UACC-62 melanoma
UO-31 renal = tested on: UO-31 renal
HOP-18 NSCLC = tested on: HOP-18 NSCLC
SNB-78 CNS = tested on: SNB-78 CNS

CN1CCN(CCNc2ccc(CO)c3sc4ccccc4c(=O)c23)CC1
TGI (786-0 renal): 17.5 µM | GI50 (A498 renal): 2.51 µM | TGI (A498 renal): 8.2 µM | TGI (A549 NSCLC): 11.3 µM | TGI (ACHN renal): 26.7 µM | GI50 (BT-549 breast): 4.83 µM | TGI (BT-549 breast): 16.1 µM | TGI (CAKI-1 renal): 19.8 µM | TGI (CCRF-CEM leukemia): > 48 µM | TGI (COLO 205 colon): 16.5 µM | TGI (DLD-1 colon): 53.2 µM | TGI (DMS 114 small cell lung): 22.9 µM | TGI (DMS 273 small cell lung): 14.1 µM | GI50 (DU-145 prostate): 3.43 µM | TGI (DU-145 prostate): 11.9 µM | GI50 (EKVX NSCLC): 7.48 µM | TGI (EKVX NSCLC): 20.7 µM | TGI (HCC-2998 colon): 18.6 µM | TGI (HCT-116 colon): 8.24 µM | TGI (HCT-15 colon): 18 µM | TGI (HL-60(TB) leukemia): 15.7 µM | TGI (HOP-62 NSCLC): 18.6 µM | TGI (HOP-92 NSCLC): 13.2 µM | GI50 (HS 578T breast): 10.7 µM | TGI (HS 578T breast): 31.8 µM | TGI (HT29 colon): 7.86 µM | TGI (IGROV1 ovarian): 27.2 µM | TGI (K-562 leukemia): 14.7 µM | TGI (KM12 colon): 16.7 µM | TGI (KM20L2 colon): 17.7 µM | GI50 (LOX IMVI melanoma): 2.59 µM | TGI (LOX IMVI melanoma): 8.27 µM | TGI (LXFL 529 NSCLC): 22.6 µM | TGI (M14 melanoma): 12 µM | TGI (M19-MEL melanoma): 25.7 µM | TGI (MALME-3M melanoma): 12 µM | GI50 (MCF7 breast): 1.85 µM | TGI (MCF7 breast): 8.77 µM | GI50 (MDA-MB-231 breast): 3.99 µM | TGI (MDA-MB-231 breast): 15.2 µM | GI50 (MDA-MB-435): 1.98 µM | TGI (MDA-MB-435): 4.51 µM | TGI (MOLT-4 leukemia): 12.3 µM | TGI (NCI-H226 lung): 13 µM | TGI (NCI-H23 lung): 17.6 µM | TGI (NCI-H460 lung): 13.1 µM | TGI (NCI-H522 lung): 8.89 µM | GI50 (NCI/ADR-RES ovarian): 2.56 µM | TGI (NCI/ADR-RES ovarian): 14.3 µM | TGI (OVCAR-3 ovarian): 18.3 µM | TGI (OVCAR-4 ovarian): 13.3 µM | TGI (OVCAR-5 ovarian): 21.2 µM | TGI (OVCAR-8 ovarian): 23.5 µM | GI50 (PC-3 prostate): 3.5 µM | TGI (PC-3 prostate): 14.5 µM | TGI (RPMI-8226 leukemia): 23.4 µM | GI50 (RXF 393 renal): 0.0726 µM | TGI (RXF 393 renal): 1.82 µM | TGI (SF-268 CNS): 20.7 µM | TGI (SF-295 CNS): 17.5 µM | TGI (SF-539 CNS): 10.7 µM | TGI (SK-MEL-2 melanoma): 20.9 µM | TGI (SK-MEL-28 melanoma): 9.02 µM | TGI (SK-MEL-5 melanoma): 9.88 µM | GI50 (SK-OV-3 ovarian): 3.17 µM | TGI (SK-OV-3 ovarian): 14 µM | GI50 (SN12C renal): 3.64 µM | TGI (SN12C renal): 15.4 µM | TGI (SNB-19 CNS): 36.1 µM | TGI (SNB-75 CNS): 14.5 µM | TGI (SR leukemia): 19 µM | TGI (SW-620 colon): 14.1 µM | GI50 (T-47D breast): 3.37 µM | TGI (T-47D breast): 19.4 µM | TGI (TK-10 renal): 20.1 µM | TGI (U251 CNS): 14.6 µM | TGI (UACC-257 melanoma): 9.84 µM | TGI (UACC-62 melanoma): 9.93 µM | TGI (UO-31 renal): 19.6 µM

CCc1cccc(CC)c1NC(=O)C1=C(C)NC(C)=C(C(=O)Nc2c(CC)cccc2CC)C1c1ccc2c(c1)OCO2
TGI (786-0 renal): 29.9 µM | TGI (A498 renal): 38.9 µM | TGI (A549 NSCLC): 66.5 µM | TGI (ACHN renal): 39 µM | TGI (CAKI-1 renal): 52 µM | TGI (CCRF-CEM leukemia): 20.3 µM | TGI (COLO 205 colon): 26.2 µM | TGI (DLD-1 colon): 50.3 µM | TGI (DMS 273 small cell lung): 26 µM | TGI (EKVX NSCLC): 38.3 µM | TGI (HCC-2998 colon): 36.7 µM | TGI (HCT-116 colon): 35.7 µM | TGI (HCT-15 colon): 26.8 µM | TGI (HL-60(TB) leukemia): 26.4 µM | TGI (HOP-18 NSCLC): 61.2 µM | TGI (HOP-62 NSCLC): 37.2 µM | TGI (HOP-92 NSCLC): 32.1 µM | TGI (HT29 colon): 30.4 µM | TGI (IGROV1 ovarian): 44.2 µM | TGI (K-562 leukemia): 38.2 µM | TGI (KM12 colon): 36.5 µM | TGI (KM20L2 colon): 30.5 µM | TGI (LOX IMVI melanoma): 26 µM | TGI (LXFL 529 NSCLC): 29.3 µM | TGI (M14 melanoma): 31.1 µM | TGI (M19-MEL melanoma): 30.9 µM | TGI (MALME-3M melanoma): 29.7 µM | TGI (MOLT-4 leukemia): > 100 µM | TGI (NCI-H226 lung): 28.6 µM | TGI (NCI-H23 lung): 32.8 µM | TGI (NCI-H460 lung): 28.6 µM | TGI (NCI-H522 lung): 27.2 µM | TGI (OVCAR-3 ovarian): 27.2 µM | TGI (OVCAR-4 ovarian): 42.9 µM | TGI (OVCAR-5 ovarian): 31.7 µM | TGI (OVCAR-8 ovarian): 34.7 µM | TGI (RPMI-8226 leukemia): > 100 µM | TGI (SF-268 CNS): 35.9 µM | TGI (SF-295 CNS): 29.2 µM | TGI (SF-539 CNS): 37.8 µM | TGI (SK-MEL-2 melanoma): 33.7 µM | TGI (SK-MEL-28 melanoma): 35 µM | TGI (SK-MEL-5 melanoma): 33 µM | TGI (SK-OV-3 ovarian): 60.6 µM | TGI (SN12C renal): 28.7 µM | TGI (SNB-19 CNS): 33 µM | TGI (SNB-75 CNS): 38.1 µM | TGI (SNB-78 CNS): 52.3 µM | TGI (SR leukemia): 65 µM | TGI (SW-620 colon): 31.5 µM | TGI (TK-10 renal): > 100 µM | TGI (U251 CNS): 27.4 µM | TGI (UACC-257 melanoma): 35.1 µM | TGI (UACC-62 melanoma): 25.6 µM | TGI (UO-31 renal): 30.8 µM
